According to US9131696B2, “Herbicidal compositions comprising fluroxypyr and flumetsulam” (Dow AgroSciences LLC, priority 2012, dated 2015):

Tests used:
Test in all cases: Post-emergence field trial, visual weed control
Assay type in all cases: in vivo
[1] = tested on: SASKR = thistle, Russian (Salsola iberica Sennen & Pau); details: 29 days after application, foliar
Protocol: (§1) Multiple post-emergence field trials were conducted under field conditions in the United States (Mississippi, South Dakota, and Minnesota) and Mexico. Trial sites were located in commercially grown fields of corn (ZEAMX), spring wheat (TRZAS), and winter wheat (TRZAW), using standard herbicide small plot research methodology. Post-emergence trial plot size varied from 2 to 3 meter (m)×4 to 5 m (width×length) with 4 replicates per treatment. The crops were grown using normal cultural practices for fertilization, seeding, watering, and maintenance to ensure good growth of the crops and the weeds.
(§2) All treatments in the post-emergence field trials were applied using a backpack compressed carbon dioxide (CO2) or nitrogen (N2) sprayer with flat fan nozzles calibrated to apply 94 to 250 liters per hectare (L/ha) spray volume at approximately 30-40 pounds per square inch (psi) nozzle pressure. Commercially available products of fluoroxypyr-meptyl (STARANE® 200, 200 grams acid equivalent per liter (g ae/L) and fluoroxypyr-meptyl EC 240 g ae/L) and flumetsulam (75WDG) were mixed in water at appropriate formulated product rates to achieve the desired rates based on a unit area of application (hectare) to achieve the desired rates as shown. […] Treatments were rated at 7 to 45 days after application (DAA) as compared to the untreated control plants. Visual weed control was scored on a scale of 0 to 100 percent where “0” corresponds to no injury and “100” corresponds to complete kill.
(§3) The trial sites had naturally occurring populations of weeds. The weed spectrum included, but was not limited to, AMARE, AMASS, CHEAL, CHEMU, IPOLA, KCHSC, POLCO, RUMCR, and SASKR.
(§4) A t-test (alpha=0.05) between Colby predictions and observed combinations was used to test for significant differences indicating synergy or antagonism using replicate data.
(§5) The following equation was used to calculate the expected activity of mixtures containing two active ingredients, A and B: Expected=A+B−(A×B/100) • A=observed efficacy of active ingredient A at the same concentration as used in the mixture; • B=observed efficacy of active ingredient B at the same concentration as used in the mixture.

[2] = tested on: RUMCR = dock, curly (Rumex crispus L.); details: 45 days after application, foliar
Protocol: as §1, §2, §3, §4, §5

[3] = tested on: KCHSC = kochia (Kochia scoparia (L.) Schrad.); details: 28 days after application, foliar
Protocol: as §1, §2, §3, §4, §5

[4] = tested on: CHEAL = lambsquarters, common (Chenopodium album L.); details: 30 days after application, foliar
Protocol: as §1, §2, §3, §4, §5

[5] = tested on: POLCO = buckwheat, wild (Polygonum convolvulus L.); details: 28 days after application, foliar
Protocol: as §1, §2, §3, §4, §5

[6] = tested on: CHEMU = goosefoot, nettleleaf (Chenopodium murale L.); details: 30 days after application, foliar
Protocol: as §1, §2, §3, §4, §5

[7] = tested on: IPOLA = morningglory, pitted (Ipomoea lacunosa L.); details: 28 days after application, foliar
Protocol: as §1, §2, §3, §4, §5

[8] = tested on: AMARE = pigweed, redroot (Amaranthus retroflexus L.); details: foliar
Protocol: as §1, §2, §3, §4, §5

[9] = tested on: AMASS = pigweed species (Amaranthus sp.); details: foliar; for Flumetsulam % Visual Weed Control: flumetsulam 20 g ai/ha
Protocol: as §1, §2, §3, §4, §5

What does the source list for CCCCCCC(C)OC(=O)COc1nc(F)c(Cl)c(N)c1Cl (racemic) [Fluroxypyr-Meptyl, (RS)-1-methylheptyl 4-amino-3,5-dichloro-6-fluoro-2-pyridyloxyacetate]?
Fluroxypyr-Meptyl % Visual Weed Control ([1]; fluroxypyr-meptyl 35 g ae/ha): 23%; Fluroxypyr-Meptyl % Visual Weed Control ([2]; fluroxypyr-meptyl 75 g ae/ha): 50%; Fluroxypyr-Meptyl % Visual Weed Control ([3]; fluroxypyr-meptyl 35 g ae/ha): 30%; Fluroxypyr-Meptyl % Visual Weed Control ([4]; fluroxypyr-meptyl 75 g ae/ha): 20%; Fluroxypyr-Meptyl % Visual Weed Control ([5]; fluroxypyr-meptyl 35 g ae/ha): 38%; Fluroxypyr-Meptyl % Visual Weed Control ([5]; fluroxypyr-meptyl 70 g ae/ha): 64%; Fluroxypyr-Meptyl % Visual Weed Control ([6]; fluroxypyr-meptyl 50 g ae/ha): 20%; Fluroxypyr-Meptyl % Visual Weed Control ([6]; fluroxypyr-meptyl 75 g ae/ha): 28%; Fluroxypyr-Meptyl % Visual Weed Control ([7]; fluroxypyr-meptyl 70 g ae/ha): 20%; Fluroxypyr-Meptyl % Visual Weed Control ([8]; 13 days after application, fluroxypyr-meptyl 110 g ae/ha): 8%; Fluroxypyr-Meptyl % Visual Weed Control ([8]; 28 days after application, fluroxypyr-meptyl 35 g ae/ha): 3%; Fluroxypyr-Meptyl % Visual Weed Control ([8]; 28 days after application, fluroxypyr-meptyl 110 g ae/ha): 13%; Fluroxypyr-Meptyl % Visual Weed Control ([9]; 7 days after application, fluroxypyr-meptyl 75 g ae/ha): 15%; Fluroxypyr-Meptyl % Visual Weed Control ([9]; 14 days after application, fluroxypyr-meptyl 50 g ae/ha): 21%; Fluroxypyr-Meptyl % Visual Weed Control ([9]; 14 days after application, fluroxypyr-meptyl 75 g ae/ha): 18%

Which “Flumetsulam % Visual Weed Control” value ([1]; flumetsulam 9 g ai/ha) does the source give for Cc1ccn2nc(S(=O)(=O)Nc3c(F)cccc3F)nc2n1 [Flumetsulam, 2′,6′-difluoro-5-methyl[1,2,4]triazolo-[1,5-a]pyrimidine-2-sulfonanilide] here?
The value was 67%.

What about the “Flumetsulam % Visual Weed Control” value ([2]; flumetsulam 15 g ai/ha) of the same compound?
Its value is 40%.

What about the “Flumetsulam % Visual Weed Control” value ([2]; flumetsulam 30 g ai/ha) of the same compound?
Its value is 52%.

What about the “Flumetsulam % Visual Weed Control” value ([2]; flumetsulam 60 g ai/ha) of the same compound?
The value was 70%.

And the “Flumetsulam % Visual Weed Control” value ([3]; flumetsulam 35 g ai/ha)?
The value was 58%.

What about the “Flumetsulam % Visual Weed Control” value ([4]; flumetsulam 15 g ai/ha) of the same compound?
Its value is 31%.

And the “Flumetsulam % Visual Weed Control” value ([4]; flumetsulam 30 g ai/ha)?
The value was 35%.

And the “Flumetsulam % Visual Weed Control” value ([4]; flumetsulam 60 g ai/ha)?
Its value is 40%.

And the “Flumetsulam % Visual Weed Control” value ([5]; flumetsulam 18 g ai/ha)?
Its value is 0%.

And the “Flumetsulam % Visual Weed Control” value ([5]; flumetsulam 35 g ai/ha)?
Its value is 0%.

And the “Flumetsulam % Visual Weed Control” value ([6]; flumetsulam 15 g ai/ha)?
The value was 57%.

And the “Flumetsulam % Visual Weed Control” value ([6]; flumetsulam 30 g ai/ha)?
The value was 66%.

And the “Flumetsulam % Visual Weed Control” value ([6]; flumetsulam 60 g ai/ha)?
The value was 69%.

What about the “Flumetsulam % Visual Weed Control” value ([7]; flumetsulam 18 g ai/ha) of the same compound?
The value was 33%.

What about the “Flumetsulam % Visual Weed Control” value ([8]; 13 days after application, flumetsulam 18 g ai/ha) of the same compound?
Its value is 81%.

And the “Flumetsulam % Visual Weed Control” value ([8]; 28 days after application, flumetsulam 35 g ai/ha)?
The value was 45%.

What about the “Flumetsulam % Visual Weed Control” value ([9]; 7 days after application) of the same compound?
The value was 79%.

What about the “Flumetsulam % Visual Weed Control” value ([9]; 14 days after application) of the same compound?
Its value is 81%.
